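Test compounds were applied to cells in 96-well plates for 48 hours at 5 doses. Definition used: TGI = concentration required for complete inhibition of growth.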
Assays:
Test in all cases: inhibition of tumour cell growth, NCI panel, 48 h
[1] = tested on: SW-620 colon
[2] = tested on: IGROV1 ovarian
[3] = tested on: PC-3 prostate
[4] = tested on: SK-OV-3 ovarian
[5] = tested on: U251 CNS
[6] = tested on: SF-268 CNS
[7] = tested on: OVCAR-4 ovarian
[8] = tested on: MDA-N
[9] = tested on: A549 NSCLC
[10] = tested on: 786-0 renal
[11] = tested on: MDA-MB-231 breast
[12] = tested on: SK-MEL-2 melanoma
[13] = tested on: KM12 colon
[14] = tested on: SK-MEL-28 melanoma
[15] = tested on: A498 renal
[16] = tested on: CCRF-CEM leukemia
[17] = tested on: SF-295 CNS
[18] = tested on: HOP-92 NSCLC
[19] = tested on: NCI-H460 lung
[20] = tested on: HL-60(TB) leukemia

| Structure (SMILES) | TGI [1] [µM] | TGI [2] [µM] | TGI [3] [µM] | TGI [4] [µM] | TGI [5] [µM] | TGI [6] [µM] | TGI [7] [µM] | TGI [8] [µM] | TGI [9] [µM] | TGI [10] [µM] | TGI [11] [µM] | TGI [12] [µM] | TGI [13] [µM] | TGI [14] [µM] | TGI [15] [µM] | TGI [16] [µM] | TGI [17] [µM] | TGI [18] [µM] | TGI [19] [µM] | TGI [20] [µM] |
| --- | --- | --- | --- | --- | --- | --- | --- | --- | --- | --- | --- | --- | --- | --- | --- | --- | --- | --- | --- | --- |
| CC1(C)OC(=O)C2(O1)C(=O)C1CCCCC12 (stereo not given) | > 100 | > 100 | > 100 | > 100 | > 100 | > 100 | > 100 | > 100 | > 100 | > 100 | > 100 | > 100 | > 100 | > 100 | > 100 | > 100 | > 100 | – | – | – |
| Cc1ccc(S(=O)(=O)Nn2c(S)c(C#N)c(-c3ccc([N+](=O)[O-])cc3)c(C#N)c2=O)cc1 | 35.1 | 51 | > 100 | > 100 | 98 | > 100 | > 100 | 73.1 | > 100 | 52.2 | 36.5 | 80.1 | > 100 | > 100 | > 100 | 52.6 | > 100 | > 100 | > 100 | – |
| O=C1[C@@H]2C[C@@H](O)CN2C(=O)c2ccccc2N1CCCO | > 100 | > 100 | > 100 | > 100 | > 100 | > 100 | – | > 100 | > 100 | > 100 | > 100 | > 100 | > 100 | > 100 | > 100 | – | > 100 | > 100 | > 100 | – |
| NNCCc1n[nH]c(=O)n1N | > 100 | > 100 | > 100 | > 100 | > 100 | > 100 | > 100 | > 100 | > 100 | > 100 | > 100 | – | > 100 | > 100 | – | > 100 | > 100 | > 100 | > 100 | > 100 |
| CC(C)(C)[Si](C)(C)OCCOCn1cc(F)c(=O)[nH]c1=O | > 100 | > 100 | > 100 | > 100 | > 100 | > 100 | > 100 | > 100 | > 100 | > 100 | – | > 100 | > 100 | – | > 100 | > 100 | > 100 | – | > 100 | > 100 |
| C[n+]1cccc2ccc(OC(=O)c3ccccc3)cc21 | > 100 | > 100 | – | > 100 | – | > 100 | > 100 | > 100 | > 100 | > 100 | – | > 100 | > 100 | – | > 100 | – | > 100 | > 100 | – | – |
| O=c1oc(-c2ccccc2)c(-c2ccccc2)n1-c1ccc(Br)cc1 | > 100 | > 100 | > 100 | > 100 | > 100 | > 100 | 96.4 | – | > 100 | > 100 | > 100 | > 100 | > 100 | > 100 | > 100 | > 100 | > 100 | > 100 | > 100 | > 100 |

— PubChem BioAssay (NCI)
